Experiments:
[1] = test system: FLUAV-infected RPE cells; test: Metabolomics of polar metabolites in media of FLUAV-infected RPE cells; details: infected RPE cells (FLUAV moi 1), 10 μM, 24 h
[2] = test system: host genes in mock-infected RPE cells; format: cell-based, human; details: 10 μM, 8 h; for expression of PTGS2: mock-infected RPE cells; for expression of PDE4D, CRISPLD2 and PTGES / expression of SLC26A4, FAM111B and CCNE2: non-infected RPE cells, compared to non-treated cells
[3] = test system: host genes in FLUAV-infected RPE cells; format: cell-based, human; details: 10 μM, 8 h; for expression of PTGS2: virus-infected RPE cells (FLUAV moi 1); for FLUAV-activated host gene expression: FLUAV-infected RPE cells (moi 1)
[4] = Cell viability assay (Cell Titer Glow) in mock-infected RPE cells, cytotoxicity; details: human
[5] = test system: viral RNAs of influenza A/WSN/33(H1N1) virus; format: cell-based, influenza A virus in human RPE cells

Row | SMILES | levels of many polar metabolites in the media [1] | expression of PTGS2 [2] | expression of PTGS2 [3] | CC50 at 48 h [4] [µM] | other results
1 | CC(=O)Nc1ccc(O)cc1 [4-acetamidophenol] | elevated |  |  |  | 
2 | C#C[C@]1(O)CC[C@H]2[C@@H]3CCc4cc(O)ccc4[C@H]3CC[C@@]21C [17a-ethynylestradiol] | elevated |  |  |  | 
3 | CC(=O)Oc1ccccc1C(=O)O [acetylsalicylic acid, Acetylsalicylic acid] | elevated |  |  |  | 
4 | CCOC(=O)C1=C(COCCN)NC(C)=C(C(=O)OC)C1c1ccccc1Cl (stereo not shown) [amlodipine, Amlodipine] | elevated | increased | increased |  | 
5 | CCCCNc1cc(C(=O)O)cc(S(N)(=O)=O)c1Oc1ccccc1 [bumetanide, Bumetanide] | elevated |  |  |  | 
6 | CCOc1nc2cccc(C(=O)O)c2n1Cc1ccc(-c2ccccc2-c2nnn[nH]2)cc1 [candesartan, Candesartan] | elevated |  |  |  | 
7 | C#C[C@]1(O)CC[C@H]2[C@@H]3CCC4=CCCC[C@@H]4[C@H]3C(=C)C[C@@]21CC [desogestrel, Desogestrel] |  |  |  | 34.5 | 
8 | C[C@]12CCC(=O)C=C1[C@@H]1C[C@@H]1[C@H]1[C@@H]3[C@@H]4C[C@@H]4[C@@]4(CCC(=O)O4)[C@@]3(C)CC[C@@H]12 [drospirenone, Drospirenone] |  | increased | increased |  | 
9 | COc1ccc2nc([S@@+]([O-])Cc3ncc(C)c(OC)c3C)[nH]c2c1 [esomeprazole, Esomeprazole] |  | increased | increased |  | 
10 | COC(=O)C1=C(C)NC(C)=C(C(=O)OC(C)(C)CN(C)CCC(c2ccccc2)c2ccccc2)C1c1cccc([N+](=O)[O-])c1 (stereo not shown) [lercanidipine, Lercanidipine] |  | increased | increased |  | 
11 | CN(C)C(=N)N=C(N)N [metformin, Metformin] |  |  |  |  | effect on polyadenylated viral RNAs [5]: differentially affected
12 | CC(C)(C)NCC(O)c1ccc(O)c(CO)c1 (stereo not shown) [salbutamol, Salbutamol] |  |  |  |  | expression of PDE4D, CRISPLD2 and PTGES [2]: increased; expression of SLC26A4, FAM111B and CCNE2 [2]: decreased; FLUAV-activated host gene expression [3]: did not affect
13 | OCc1cc(C(O)CNCCCCCCOCCCCc2ccccc2)ccc1O (stereo not shown) [salmeterol, Salmeterol] |  |  |  | 29.3 | expression of PDE4D, CRISPLD2 and PTGES [2]: increased; expression of SLC26A4, FAM111B and CCNE2 [2]: decreased; FLUAV-activated host gene expression [3]: did not affect
14 | CN[C@H]1CC[C@@H](c2ccc(Cl)c(Cl)c2)c2ccccc21 [sertraline, Sertraline] |  | increased | increased | 17.5 | 
15 | CCC(C)(C)C(=O)O[C@H]1C[C@@H](C)C=C2C=C[C@H](C)[C@H](CC[C@@H]3C[C@@H](O)CC(=O)O3)[C@H]21 [simvastatin, Simvastatin] |  | increased | increased | 48.3 | 
16 | C=C1CC[C@H](O)C/C1=C/C=C1\CCC[C@]2(C)[C@@H]([C@H](C)/C=C/[C@H](C)C(C)C)CC[C@@H]12 [vitamin D2, Vitamin D2] |  |  |  | 42.1 | 
17 | C=C1CC[C@H](O)C/C1=C/C=C1\CCC[C@]2(C)[C@@H]([C@H](C)CCCC(C)C)CC[C@@H]12 [vitamin D3, Vitamin D3 (colecalciferol)] |  |  |  | 48.8 | 
